System: Influenza A/WSN/Virus
Format: cell-based

Substance: Ala Ser Gln Gly Thr Lys Arg Ser Tyr Glu Gln Met Glu Thr Asp Gly Glu Arg Gln (ASQGTKRSYEQMETDGERQ; listed as Homo sapiens) [NP-NLS oligopeptide, 19-amino acid NP-NLS oligopeptide corresponding to amino acids 2-20 of NP]
- inhibition of viral growth (hemagglutination titer): thousand-fold
